One experiment relates to adult B. malayi. As to the kind of experiment: Adult Brugia malayi worm motility assay (Worminator) in vitro. It is filed as cell-based. As to conditions: for IC50: B. malayi, Adult, Day 3, motility. The method, then: Adult female and male Brugia (B. malayi and B. pahangi) were shipped from TRS Labs Inc., Athens, GA and assayed using methods described by Marcellino et al. (2012). Individual females were placed in each well of a 24-well plate with media (RPMI-1640 with 25 mM HEPES, 2.0 g/L NaHCO3, 5% heat inactivated FBS, and 1X Antibiotic/Antimycotic solution). Excess media was removed from plates using a Biomek FxP, leaving 500 μL of media per well. Initial screening of a library of FDA-approved compounds, compiled by the Small Molecule Discovery Center at the University of California San Francisco, was conducted at 10 μM per compound, and 1% DMSO was used as a negative control. All drugs including auranofin (Enzo Life Sciences, Farmingdale, NY) were dissolved in DMSO (Sigma-Aldrich, St. Louis, MO) and 10 mM stock solutions were stored at -20°C. Four worms were used as replicates for each concentration and worm plates were kept in a 37°C, 5% CO2 incubator for four days.
To determine the effect of a compound on worm motility, individual worm movements were counted as the number of pixels displaced per second by each worm in each well using the Worminator. Each plate of worms was video recorded for approximately 60 seconds, and mean movement units (MMUs) were determined for individual worms. Percent inhibition of motility was calculated by dividing the MMUs of the treated worms by the control average MMUs, subtracting the value from 1.0, flooring the values to zero and multiplying by 100%. Videos were recorded for 4 days, including the first day of the assay (Day 0). IC50 determinations were conducted at 10 μM, 3 μM, 1 μM, 0.3 μM, 0.1 μM and 0.03 μM, with 1% DMSO used as a control. IC50 assays were repeated at the same concentrations and at six point, three-fold dilutions from 1 μM to 0.003 μM or 3 μM to […] to ensure that activity was consistent between assays. Prism 4.0 was used to calculate IC50 values using a non-linear regression curve fit. The means of all IC50s with R^2 values greater than or equal to 0.7 are reported.

The next experiment relates to L. loa microfilariae. Description: Loa loa microfilariae motility in vitro. The experiment is classed as cell-based. As to conditions: Day 5. The method, then:
Loa loa microfilariae were purified from the blood of a heavily infected subject (having approximately 10,000 microfilariae/mL of blood) using Percoll (GE Healthcare, Piscataway, NJ) gradient centrifugation. Venous blood (10 mL) was collected from consenting, infected individuals in an EDTA tube. The blood was layered on a step-wise Percoll gradient (46% and 43% Percoll prepared in CCM) followed by centrifugation at 400 rcf for 20 minutes. The L. loa microfilariae were recovered in the 43% layer, washed 3 times in CCM and counted.
Microfilariae (10–15 per well) were cultured in 96-well culture plates in duplicate under the same conditions and drug concentrations as were used for the adult O. ochengi, except that 10 μg/mL ivermectin was used as a positive control. Microfilariae viability was visually scored based on motility reduction using the same scale described above for adult male O. ochengi. Scores were recorded every 24 hours after the addition of drugs for 5 days using an inverted microscope.

Another experiment deals with B. pahangi. Description: Worm retrieval from B. pahangi infected gerbils treated orally. It is filed as in vivo, Mongolian gerbils (Meriones unguiculatus). To be noted: for reduction in worm burden: 48 doses over 28 days, vs vehicle. The method, then:
Animal studies were performed under IACUC approval #AN085723–02 to test the efficacy of auranofin in vivo. Male Mongolian gerbils (Meriones unguiculatus, Charles River Laboratories International, Inc., Wilmington, MA) were injected intraperitoneally (IP) with 300 B. pahangi L3 (Filariatech, Inc., Athens, GA) and treated 3 months post-infection. Auranofin was dissolved in 100% ethanol at 4 mg/mL and mixed 1:1 with PBS. Vehicle doses consisted of the same mixture of ethanol and PBS but without auranofin. Doses (up to 200 μl) were given to gerbils orally at 5 mg/kg body weight, BID weekdays and SID weekends for a total of 48 doses over 4 weeks.
Two studies (Study 1 and Study 2) were conducted using the same protocols and the same dosing schedule except that in Study 1, two gerbils from the auranofin treatment group and two gerbils from the vehicle group were treated for 14 days and were necropsied 2 hours after their last dose (interim necropsy) to determine plasma gold levels (from auranofin). The remaining gerbils in Study 1 were treated for 28 days and were necropsied 11, 14, or 16 days after the end of dosing. In Study 2, all gerbils were treated for 28 days and were necropsied 16 days after the end of dosing. For both of these in vivo studies, worms were collected from the gerbil’s peritoneal cavity, counted, sexed and examined under a dissecting microscope. For each study a two-tailed Student’s T-test assuming equal variance was conducted using Microsoft Excel to determine the statistical significance of the difference in mean worm retrieval between the auranofin treated and vehicle treated groups. Gerbil blood was collected by cardiac puncture and plasma was sent to NMS Labs, Willow Grove, PA to determine plasma gold levels (elemental gold analysis) by graphite furnace atomic absorption spectroscopy.

The test system of experiment [1] is endogenous Brugia thioredoxin reductase. As to the kind of experiment: Thioredoxin reductase activity of lysates of female B. malayi treated in vitro. The experiment is classed as biochemical, Brugia malayi. To be noted: 5 hours in vitro, female worms, soluble lysate. The method, then: Thioredoxin reductase activity of worm lysates was assayed using female B. malayi treated in vitro with either 0.3 μM, 0.1 μM, or 0.03 μM auranofin or 1% DMSO. After 5 hours of treatment, worm motility was measured using the Worminator, and then worms (24 in each group) were pooled, washed three times in PBS, and lysed by douncing in a glass homogenizer in assay buffer (Abcam Thioredoxin Reductase Assay kit, ab83463) with 1 mM PMSF. The crude lysates were centrifuged at 10,000 rcf for 15 minutes at 4°C to pellet insoluble material. The total protein concentrations of soluble lysates were measured using the Bradford assay. The soluble lysates were incubated for 20 minutes in assay buffer or assay buffer with a proprietary thioredoxin reductase specific inhibitor before adding a specific substrate, DTNB (5, 5′-dithiobis (2-nitrobenzoic) acid), and measuring activity at 20 second intervals for 40 minutes using the SpectraMax Plus Microplate Reader (Molecular Devices, Sunnyvale, CA) at λ = 412 nm. Lysates were tested in duplicate. TrxR activity was calculated based on the linear amount of TNB produced per minute per mg of total protein and adjusted for background activity from enzymes other than TrxR in the lysates.

In another experiment the target is glutathione peroxidase. Further details: method as in PMID 9685351. As to conditions: higher IC50; cited from earlier work.
The mark [2] stands for this setting: Study 1 interim necropsy, 14 days of treatment.

We go through 1 compound from PMC4336141, “Repurposing Auranofin as a Lead Candidate for Treatment of Lymphatic Filariasis and Onchocerciasis” (PLoS Neglected Tropical Diseases, 2015).

Broadly, the IC50 is the concentration that inhibits the measured activity by half. The low end stands for higher potency, the high end for lower potency.

With `CC[PH](CC)(CC)[Au][S][C@@H]1O[C@H](COC(C)=O)[C@@H](OC(C)=O)[C@H](OC(C)=O)[C@H]1OC(C)=O` [auranofin, 2,3,4,6-tetra-O-acetyl-1-thio-beta-D-glucopyranosato-S (triethylphosphine) gold], the figures for the half-inhibitory concentration (IC50) in the experiment on adult B. malayi (Female), with adult B. malayi (Male) and in the experiment with L. loa microfilariae were 1.1 µM, 0.3 µM and 12.8 µM, respectively. Further, in the experiment with adult B. malayi (female B. malayi, 3 μM, within 18 hours of incubation), the inhibition of motility came out at 97%. Moreover, the “reduction in worm burden” value was determined as 58% in the experiment with B. pahangi (Study 1, 5 mg/kg oral, not statistically significant (p > 0.05)) and 91% in the experiment with B. pahangi (Study 2, 5 mg/kg oral, necropsy 16 days after end of dosing, p = 0.01). Also, the “average number of worms” value in the experiment with B. pahangi (Study 1, all treated animals (n = 9), vehicle 9.4) came out at 4.0 worms. Moreover, in the experiment with B. pahangi (setting [2]), the female worms worked out at 7. This compound returned a male worms in the experiment on B. pahangi (setting [2]) of 4. In addition, the “total number of worms” value with B. pahangi (Study 1 interim necropsy, 14 days of treatment, two gerbils, vehicle 43) worked out at 11. In the experiment on B. pahangi (Study 2), this compound returned a male worms recovered of 11. This compound came in with a female worms recovered in the experiment on B. pahangi (Study 2, remaining female encapsulated with host tissue) of 1. Moreover, the “mean worms per gerbil” value in the experiment on B. pahangi (Study 2, vehicle 32) was determined as 3 worms per gerbil. In the experiment on B. pahangi (Study 2, vehicle 161), this compound showed a total worms recovered of 12. In addition, the “Thioredoxin reductase activity, percent of DMSO control” value in experiment [1] (0.03 μM) is 69%; in experiment [1] (0.1 μM) it was 33%; in experiment [1] (0.3 μM), 15%. Besides, on glutathione peroxidase, the “IC50 relative to TrxR isolated from human placenta” value was “about 1000 fold”.
